From ChEMBL document CHEMBL5050844 (2019)

Columns and labels:
Assay type in all cases: functional, T cell line
[1] = Induction of anti-CD3 antibodies-stimulated human T cell activation at 8 uM assessed fold increase in CD25 expression measured by ELISA assay; note: reference of the scale not given here
[2] = Induction of anti-CD3/CD28 antibodies-stimulated human T cell activation at 1 uM assessed fold increase in CD25 expression measured by ELISA assay
[3] = Induction of anti-CD3 antibodies-stimulated human T cell activation at 1 uM assessed fold increase in CD25 expression measured by ELISA assay; note: reference of the scale not given here
[4] = Induction of anti-CD3/CD28 antibodies-stimulated human T cell activation at 4 uM assessed fold increase in CD25 expression measured by ELISA assay
[5] = Induction of anti-CD3 antibodies-stimulated human T cell activation at 8 uM assessed fold increase in IL-2 secretion measured by ELISA assay; note: reference of the scale not given here
[6] = Induction of anti-CD3/CD28 antibodies-stimulated human T cell activation at 0.3 uM assessed fold increase in CD25 expression measured by ELISA assay
[7] = Induction of anti-CD3 antibodies-stimulated human T cell activation at 1 uM assessed fold increase in IL-2 secretion measured by ELISA assay; note: reference of the scale not given here
[8] = Induction of anti-CD3/CD28 antibodies-stimulated human T cell activation at 1 uM assessed fold increase in IL-2 secretion measured by ELISA assay
[9] = Induction of anti-CD3/CD28 antibodies-stimulated human T cell activation at 4 uM assessed fold increase in IL-2 secretion measured by ELISA assay
[10] = Induction of anti-CD3/CD28 antibodies-stimulated human T cell activation at 0.3 uM assessed fold increase in IL-2 secretion measured by ELISA assay

Row | Compound | fold change (FC) [1] | fold change (FC) [2] | fold change (FC) [3] | fold change (FC) [4] | fold change (FC) [5] | fold change (FC) [6] | fold change (FC) [7] | fold change (FC) [8] | fold change (FC) [9] | fold change (FC) [10]
1 | Cc1cccc2nc(C(=O)Nc3cccc([C@H](C)Sc4nncn4C)c3)ccc12 | 0.801 | 1.01 | 0.801 | 1.01 | 0.101 | 1.01 | <=0.05 | 5 | >=7.5 | 2.51
2 | Cn1cnnc1[C@@H]1C[C@@H]1c1cccc(N2Cc3c(cc(C#N)cc3C(F)(F)F)C2=O)c1 | 0.801 | 1.01 | 0.601 | 1.01 | 0.101 | 1.01 | <=0.05 | 1.01 | 2.51 | 1.01
3 | Cn1cnnc1C(F)(F)[C@](C)(F)c1cccc(N2Cc3c(cc(C(=O)N4CC(C(F)F)C4)cc3C(F)(F)F)C2=O)c1 | 0.801 | 1.01 | 0.601 | 1.01 | 0.051 | 1.01 | 0.051 | 1.01 | 1.01 | 1.01
4 | CCn1cnnc1C[C@@H](C)c1cccc(NC(=O)c2cc(C(=O)N3C[C@@H](O)C[C@H]3C)ccn2)c1 | 0.601 | 1.01 | 0.601 | 1.01 | 0.151 | 1.01 | 0.151 | <=1 | 1.01 | <=1
5 | C[C@H](Sc1nncn1C)c1cccc(N2Cc3c(ccnc3Cl)C2=O)c1 | 0.601 | 1.01 | <=0.6 | >=1.76 | 0.101 | 1.51 | <=0.05 | <=1 | 2.51 | 1.01
6 | C[C@H](Cc1nncn1C)c1cc(OCCO)nc(N2Cc3c(cccc3C(F)(F)F)C2=O)c1 | >=1.001 | 1.01 | 0.601 | 1.31 | >=0.201 | 1.01 | 0.051 | 1.01 | 2.51 | 1.01
7 | Cc1cc(C(=O)Nc2cccc([C@H](C)Cc3nncn3C)c2)nc2ccnn12 | >=1.001 | 1.01 | 0.601 | 1.31 | >=0.201 | 1.01 | 0.101 | 1.01 | 5 | 1.01
8 | COc1cccc(C(=O)Nc2cccc([C@H](C)Sc3nncn3C)c2)n1 | 0.601 | <=1 | <=0.6 | 1.31 | 0.151 | <=1 | 0.101 | 1.01 | 2.51 | 1.01
9 | Cn1cnnc1C(F)(F)[C@](C)(F)c1cccc(NC(=O)c2nc3c(C(F)(F)F)cccc3[nH]2)c1 | 0.601 | 1.01 | 0.601 | 1.01 | 0.151 | 1.01 | 0.051 | 1.01 | 2.51 | 1.01
10 | C[C@H](Cc1nncn1C)c1cccc(NC(=O)c2cc(C(=O)N3C[C@@H](O)C[C@H]3C)ccn2)c1 | <=0.6 | 1.01 | <=0.6 | 1.51 | 0.101 | 1.01 | 0.101 | <=1 | <=1 | <=1
11 | C[C@H](Cc1nncn1C)c1cc(NC2CCC2)nc(N2Cc3c(cccc3C(F)(F)F)C2=O)c1 | >=1.001 | 1.01 | 0.601 | 1.01 | 0.151 | 1.01 | <=0.05 | 1.01 | 1.01 | 1.01
12 | C[C@H](Cc1nncn1C)c1cccc(N2Cc3c(ccnc3C3CCC3)C2=O)c1 | >=1.001 | 1.01 | >=1.001 | 1.01 | 0.101 | <=1 | 0.051 | 2.51 | 5 | 1.01
13 | C[C@H](Sc1nncn1C)c1ccnc(NC(=O)c2cc(C3CC3)cc(C(F)(F)F)n2)c1 | 0.801 | <=1 | 0.601 | 1.01 | <=0.05 | <=1 | <=0.05 | 1.01 | 1.01 | 1.01
14 | Cc1ncc(C(=O)Nc2cccc([C@H](C)Sc3nncn3C)c2)nc1C1CC1 | 0.801 | 1.31 | 0.801 | 1.51 | 0.051 | 1.31 | <=0.05 | 1.01 | 2.51 | <=1
15 | Cc1cc(C(=O)Nc2cccc([C@H](C)Cc3nncs3)c2)nc(C2CC2)n1 | 0.801 | 1.01 | 0.601 | 1.01 | >=0.201 | 1.01 | 0.101 | 2.51 | 5 | 1.01
16 | C[C@H](Sc1nnc[nH]1)c1cccc(NC(=O)c2cc3ccccc3cn2)c1 | <=0.6 | <=1 | <=0.6 | <=1 | 0.051 | <=1 | 0.051 | 1.01 | 1.01 | 1.01
17 | Cn1cnnc1C(F)(F)[C@](C)(F)c1cccc(N2Cc3c(cc(CN4CC(C#N)C4)cc3C(F)(F)F)C2=O)c1 | >=1.001 | 1.01 | 0.801 | 1.01 | 0.101 | 1.01 | 0.051 | 2.51 | 5 | 1.01
